# The supplement of paper PMC10331698
# ± gives the standard deviation of the averaged measurements.
# Experiments:
# Assay in all cases: level (log10 ratio to DMSO vehicle control); higher = higher biomarker level / cell amount than vehicle control
# [1] = compound: O=C(CC(=O)C(F)(F)C(F)(F)C(F)(F)F)c1cccs1 [(Perfluorobutyryl)-2-thenoylmethane]; details: in DMSO
# Experimental: (§1)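 BioMAP Diversity Plus panel of 12 human primary cell co-culture systems (3C, 4H, LPS, SAg, BT, BF4T, BE3C, CASM3C, HDF3CGF, KF3CT, MyoF, Mphg). Compounds were added 1 h before stimulation and left for 24 h (MyoF 48 h; BT 72 h for soluble read-outs or 6 d for IgG). Biomarkers were read by ELISA, cytotoxicity by SRB, PBMC viability and proliferation by Alamar Blue. Each well value was divided by the mean of 8 DMSO control wells on the same plate and log10 transformed; duplicate blinded samples were tested at 4 concentrations.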
# [2] = compound: O=S(=O)(O)CCC(F)(F)C(F)(F)C(F)(F)C(F)(F)F [4:2 Fluorotelomer sulfonic acid]; details: in DMSO
# Experimental: as §1
# Perfluorooctanoic acid = compound: O=C(O)C(F)(F)C(F)(F)C(F)(F)C(F)(F)C(F)(F)C(F)(F)C(F)(F)F [Perfluorooctanoic acid]; details: in DMSO
# Experimental: as §1
# [3] = compound: OCCCCC(F)(F)C(F)(F)C(F)(F)C(F)(F)F [4:4 Fluorotelomer alcohol]; details: in DMSO
# Experimental: as §1
# [4] = compound: C=CC(=O)OCC(F)(F)C(F)(F)C(F)(F)C(F)(F)COC(=O)C=C [1H,1H,6H,6H-Perfluorohexane-1,6-diol diacrylate]; details: 6700 nM; in DMSO
# Experimental: as §1
# Methotrexate = compound: CN(Cc1cnc2nc(N)nc(N)c2n1)c1ccc(C(=O)N[C@@H](CCC(=O)O)C(=O)O)cc1 [Methotrexate]; details: in DMSO
# Experimental: as §1
# Tetrafluorosuccinic acid = compound: O=C(O)C(F)(F)C(F)(F)C(=O)O [Tetrafluorosuccinic acid]; details: in DMSO
# Experimental: as §1
# [5] = compound: OCCC(F)(F)C(F)(F)C(F)(F)C(F)(F)C(F)(F)C(F)(F)C(F)(F)C(F)(F)F [8:2 Fluorotelomer alcohol]; details: 6700 nM; in DMSO
# Experimental: as §1
Test System,level (log10) ([1]; 6700 nM),level (log10) ([1]; 20000 nM),level (log10) ([2]; 6700 nM),level (log10) ([2]; 20000 nM),level (log10) ([2]; 60000 nM),level (log10) (Perfluorooctanoic acid; 6700 nM),level (log10) (Perfluorooctanoic acid; 20000 nM),level (log10) (Perfluorooctanoic acid; 60000 nM),level (log10) ([3]; 6700 nM),level (log10) ([3]; 20000 nM),level (log10) ([3]; 60000 nM),level (log10) [4],level (log10) (Methotrexate; 1500 nM),level (log10) (Methotrexate; 4400 nM),level (log10) (Methotrexate; 13000 nM),level (log10) (Methotrexate; 40000 nM),level (log10) (Tetrafluorosuccinic acid; 6700 nM),level (log10) (Tetrafluorosuccinic acid; 20000 nM),level (log10) (Tetrafluorosuccinic acid; 60000 nM),level (log10) [5]
BE3C:tPA,-0.1 ± 0.014,-0.234 ± 0.011,0.012 ± 0.013,-0.0315 ± 0.03,0.011 ± 0.05,-0.0515 ± 0.025,-0.0285 ± 0.036,-0.038 ± 0.0085,-0.0075 ± 0.00071,-0.013 ± 0.038,0.015 ± 0.021,-0.077 ± 0.0099,0.012 ± 0.0071,-0.004 ± 0.075,0.0085 ± 0.091,0.0215 ± 0.033,-0.037 ± 0.023,-0.0505 ± 0.026,-0.0365 ± 0.022,-0.064 ± 0.013
3C:CD106/VCAM-1,-0.027 ± 0.0071,-0.089 ± 0.0099,-0.022 ± 0.028,0.006 ± 0.024,0.005 ± 0.021,-0.0435 ± 0.053,-0.0325 ± 0.05,-0.013 ± 0.067,-0.01 ± 0.0057,-0.01 ± 0.016,-0.0015 ± 0.0035,-0.058 ± 0.0071,-0.0115 ± 0.044,-0.005 ± 0.021,0.0055 ± 0.035,-0.0135 ± 0.026,-0.015 ± 0.014,-0.015 ± 0.011,-0.0105 ± 0.018,-0.035 ± 0.061
CASM3C:CD142/Tissue Factor,-0.144 ± 0.013,-0.105 ± 0.021,-0.0115 ± 0.018,0.0115 ± 0.015,0.0095 ± 0.03,-0.0055 ± 0.039,-0.008 ± 0.048,-0.0345 ± 0.061,-0.0265 ± 0.015,-0.0055 ± 0.0064,0.0285 ± 0.018,-0.004 ± 0.059,0.0505 ± 0.005,0.0195 ± 0.049,0.0265 ± 0.042,0.0305 ± 0.026,-0.0165 ± 0.026,-0.0345 ± 0.00071,-0.025 ± 0.024,-0.011 ± 0.014
CASM3C:PAI-I,-0.0135 ± 0.005,-0.008 ± 0.0057,-0.002 ± 0.0014,-0.0015 ± 0.00071,-0.002 ± 0.0057,0.003 ± 0.0085,-0.0005 ± 0.012,0.01 ± 0.018,0.017 ± 0.016,0.013 ± 0.023,0.0085 ± 0.026,0.0005 ± 0.0021,0.004 ± 0.013,0.0035 ± 0.0064,0.0125 ± 0.0035,0.0105 ± 0.0021,0.0025 ± 0.0021,0.009 ± 0.0042,0.0105 ± 0.0035,-0.0035 ± 0.011
lMphg:sIL-10,0.0065 ± 0.071,-0.429 ± 0.093,0.015 ± 0.041,-0.0485 ± 0.032,-0.0545 ± 0.0064,-0.0525 ± 0.032,-0.0035 ± 0.11,-0.219 ± 0.051,-0.096 ± 0.11,-0.032 ± 0.0028,-0.014 ± 0.041,-0.067 ± 0.014,0.076 ± 0.03,0.05 ± 0.011,0.0485 ± 0.023,0.014 ± 0.028,-0.0085 ± 0.016,-0.0265 ± 0.097,0.0415 ± 0.11,-0.17 ± 0.013
KF3CT:CD54/ICAM-1,-0.0335 ± 0.00071,-0.0115 ± 0.023,-0.006 ± 0.0085,-0.0125 ± 0.0092,-0.0125 ± 0.0078,-0.015 ± 0.011,-0.011 ± 0.0028,-0.0095 ± 0.018,0.0095 ± 0.019,-0.0025 ± 0.018,0.005 ± 0.024,-0.076 ± 0.0028,-0.0085 ± 0.012,-0.011 ± 0.0014,0.006 ± 0.0071,0.007 ± 0.0042,0.011 ± 0.0085,0.003,0.025 ± 0.0042,-0.0195 ± 0.0021
MyoF:Decorin,0.0045 ± 0.011,0.0285 ± 0.022,-0.0075 ± 0.0078,-0.012 ± 0.0014,0.004 ± 0.0028,0.007 ± 0.018,0.02 ± 0.025,0.033 ± 0.055,0.0115 ± 0.0035,-0.0015 ± 0.028,0.033 ± 0.057,-0.083 ± 0.011,0.0355 ± 0.037,0.0025 ± 0.026,0.0105 ± 0.016,0.0275 ± 0.0078,-0.0055 ± 0.0021,-0.006 ± 0.0057,0.014 ± 0.027,-0.0195 ± 0.019
MyoF:PAI-I,0.0095 ± 0.0035,0.013 ± 0.0085,-0.0015 ± 0.00071,0.0055 ± 0.0035,0.0055 ± 0.012,-0.0225 ± 0.011,-0.023 ± 0.024,-0.0305 ± 0.029,0.0125 ± 0.011,0.007 ± 0.011,0.0095 ± 0.016,0 ± 0.042,-0.026 ± 0.072,-0.011 ± 0.035,0.0015 ± 0.016,-0.0185 ± 0.084,0.009 ± 0.0057,0.01 ± 0.017,0.004 ± 0.014,-0.004 ± 0.018
BE3C:MMP-1,0.0945 ± 0.015,-0.051 ± 0.017,0.002 ± 0.0014,-0.0035 ± 0.0035,0.038 ± 0.057,-0.0085 ± 0.012,0.044,0.226 ± 0.035,0.0005 ± 0.03,0.006 ± 0.02,0.022 ± 0.05,-0.0035 ± 0.011,-0.028 ± 0.024,-0.011 ± 0.044,0.034 ± 0.016,0.031 ± 0.014,-0.0025 ± 0.011,-0.0125 ± 0.0078,0.032 ± 0.038,0.0275 ± 0.021
3C:CCL2/MCP-1,-0.0145 ± 0.013,-0.166 ± 0.0085,0.0035 ± 0.023,0.003 ± 0.054,0.0065 ± 0.025,0.0055 ± 0.016,0.008 ± 0.0071,0.04 ± 0.034,0.004 ± 0.014,-0.0205 ± 0.011,-0.0105 ± 0.037,0.025 ± 0.044,0.0505 ± 0.0064,-0.013 ± 0.027,0.0065 ± 0.0078,0.028 ± 0.028,-0.0065 ± 0.016,-0.006 ± 0.0028,0.0005 ± 0.0064,-0.0025 ± 0.0021
MyoF:MMP-1,-0.0565 ± 0.052,-0.0005 ± 0.018,-0.022,-0.05 ± 0.0057,-0.005 ± 0.047,-0.032,-0.018 ± 0.038,0.043 ± 0.086,0.002 ± 0.0057,0.007 ± 0.023,0.032 ± 0.076,0.231 ± 0.023,0.002 ± 0.027,-0.017 ± 0.02,-0.004 ± 0.018,0.0175 ± 0.0021,-0.006 ± 0.023,0.0025 ± 0.0021,0.0535 ± 0.059,-0.0175 ± 0.011
BE3C:MMP-9,0.0275 ± 0.013,-0.269 ± 0.0099,-0.0055 ± 0.005,-0.0045 ± 0.018,0.0135 ± 0.0092,-0.0185 ± 0.012,0.015 ± 0.0028,0.079 ± 0.047,0.0035 ± 0.032,0.014 ± 0.028,0.031 ± 0.045,-0.0435 ± 0.018,0.014 ± 0.021,-0.0025 ± 0.011,0.0045 ± 0.079,0.0085 ± 0.015,-0.014 ± 0.027,-0.0035 ± 0.011,-0.005 ± 0.0028,-0.028 ± 0.02
HDF3CGF:Proliferation 72hr,-0.38 ± 0.0092,-0.485 ± 0.005,-0.022 ± 0.092,0.001 ± 0.021,-0.007 ± 0.047,0.06 ± 0.041,0.15 ± 0.005,0.0875 ± 0.0078,-0.003 ± 0.044,0.0205 ± 0.057,0.0355 ± 0.039,-0.567 ± 0.013,-0.0885 ± 0.042,-0.076 ± 0.13,-0.0515 ± 0.036,-0.083 ± 0.05,-0.08 ± 0.076,-0.135 ± 0.061,-0.0935 ± 0.069,-0.374 ± 0.26
KF3CT:CCL2/MCP-1,0.0205 ± 0.013,0.006 ± 0.0057,-0.0205 ± 0.012,-0.0125 ± 0.012,-0.0015 ± 0.025,0.005 ± 0.018,0.0145 ± 0.029,-0.0785 ± 0.011,-0.0035 ± 0.057,0.004 ± 0.044,0.0225 ± 0.042,-0.101 ± 0.045,0.052 ± 0.023,-0.0125 ± 0.03,-0.016 ± 0.024,0.0165 ± 0.0021,-0.05 ± 0.0085,-0.042 ± 0.021,-0.0065 ± 0.07,-0.0165 ± 0.025
